Measurements: publication PMC13091788 (NPJ Aging, 2026)
Where two headings read alike, the source gives them in different places.

How the values were obtained:
C2C12 cells = experiment: Quantification of mitochondrial DNA (mtDNA/nDNA ratio); format: cell-based, mouse; conditions: C2C12, 10 μM
Description: Murine myoblast C2C12 cells were used for various cellular experiments in this study. Two different sources of C2C12 cells were used depending on the experiment: C2C12 cells obtained from RIKEN BRC (RCB0987) were used for gene expression, mtDNA quantification, and mitochondrial morphology analysis; C2C12 cells from ATCC (CRL-1772) were used for OCR analysis. Cells were cultured in Dulbecco’s Modified Eagle Medium (DMEM; Sigma-Aldrich or Nacalai Tesque), supplemented with 10% FBS and 1% penicillin–streptomycin. Cells were maintained in a humidified incubator at 37°C with 5% CO2.
To generate mMITOL-knockout C2C12 cells, CRISPR-Cas9 vectors were constructed. Single-guide RNAs (sgRNAs) targeting the mouse MITOL gene were designed using the online tool CRISPOR (http://crispor.org). The oligonucleotide pair corresponding to the mMITOL guide RNA (gRNA sequence, 5′-[…]-3′) was annealed and ligated into the PX459 vector (48139, Addgene). C2C12 cells were transfected using Lipofectamine 3000 (Thermo Fisher Scientific), and knockout clones were selected by serial dilution.
To assess mitochondrial DNA (mtDNA) content, the mtDNA/nuclear DNA (nDNA) ratio was determined by extracting DNA from C2C12 cells using the NucleoSpin Tissue Kit (Takara Bio), followed by real-time quantitative PCR analysis with specific primer sets for mtDNA (16S rRNA or ND1) and nDNA (Hexokinase 2; HK2) (Supplementary Table 2). Real-time quantitative PCR was performed using TB Green Premix Ex Taq II (Takara Bio) and a Thermal Cycler Dice Real-Time System (Takara Bio). The analysis of mtDNA/nDNA ratios was conducted using the ΔΔCt method as previously described.

PAMPA assay = format: in vitro ADME; conditions: 37 °C, 4 h
Description: To determine the passive membrane diffusion rates, Corning Gentest Pre-coated PAMPA Plate System was used. The acceptor plate was prepared by adding 200 μL of 0.1 M phosphate buffer (pH 4.5–8.6) supplemented with 5% DMSO to each well, and then 300 μL of 30 μM compounds in 0.1 M phosphate buffer (pH 4.5–8.6) with 5% DMSO were added to the donor wells. The acceptor plate was then placed on top of the donor plate and incubated at 37 °C for 4 h without agitation. After the incubation, the plates were separated and the solutions from each well of both the acceptor plate and the donor plate were transferred to 96-well plates and mixed with acetonitrile. The final concentrations of compounds in both donor and acceptor wells, as well as the concentrations of the initial donor solutions, were analyzed using liquid chromatography-tandem mass spectrometry (LC-MS/MS). The permeability of the compounds was calculated as described in a previous study. […] Two technical replicates were performed.

[1] = Unbound fraction in mouse plasma (equilibrium dialysis); format: in vitro ADME; conditions: pH 7.4, equilibrium dialysis 6 h, 37 °C, read-out: Plasma protein binding (fraction unbound) mouse (pH7.4)
Description: An equilibrium dialysis apparatus was used to determine the unbound fraction for each compound in human or mouse plasma. High Throughput Dialysis Model HTD96b and Dialysis Membrane Strips MWCO 12–14 kDa (HTDialysis) were used. Plasma was spiked with the test compound (1 μM), and 150 μL aliquots were loaded into the apparatus and dialyzed versus 150 μL of 0.1 M phosphate buffer (pH 7.4) at 37 °C for 6 h by rotation at 80 rpm. The unbound fraction was calculated as the ratio of receiver side (buffer) to donor side (plasma) concentrations. Two technical replicates were performed.

[2] = In vivo pharmacokinetics, single oral dose; set-up: species or system mouse; conditions: mice; for AUC(0-inf) / Cmax / Tmax / half-life / CL/F: male, C57BL/6 N, mouse, plasma; for CL/F: read-out: CLtot/F; for time to reach maximum plasma concentration (Cmax): oral, both 10 mg/kg and 100 mg/kg
Description: All mouse experiments were approved by and conducted in accordance with the guidelines of the Animal Experiment Committee of the University of Tokyo (permission number: P29-24). The compounds were suspended in 0.5% methylcellulose and orally administered to 8-week-old male C57BL/6 N mice (Oriental Yeast) following an overnight fast. The dosage of the compound was 10 or 100 mg/10 mL/kg. Serial blood samples ( < 50 μL per time point) were collected from the caudal vein of each mouse at 15 and 30 min, and at 1, 2, 4, 6 and 24 h post-dose using EM MYSTAR Hematocrit Capillary treated with heparin (AS ONE). Plasma was obtained by centrifugation of the blood samples. After the final blood sampling at 24 h, the mice were humanely euthanized.
Before pharmacokinetic analyses, plasma concentrations were averaged at each time point. Concentrations below the limit of quantitation were excluded from the analysis. Pharmacokinetic analyses were conducted using PhoenixWinNonlin version 8.3 (Pharsight Corp). The maximum plasma concentrations (Cmax) and times to achieve maximum plasma concentrations (Tmax) were obtained directly from the plasma concentration-time curves. The area under the concentration-time curve from zero to infinity (AUC∞) was obtained using the linear trapezoidal method in the noncompartmental analysis module. The software was allowed to determine the best-fit line for the elimination slope for all calculations. Other parameters such as elimination half-life period (t1/2), the apparent total body clearance CLtot/F, and volume of distribution Vdz/F were further calculated.
An LCMS-8060 instrument equipped with a Shimadzu Nexera series LC system (Shimadzu) was used. Berberrubine and IS were analyzed in multiple reaction monitoring mode under electronspray ionization conditions. The analytical column used was a CAPCELL PAK C18 MGIII (3 μm × 2.0 mm ID × 35 mm; OSAKA SODA) at 50 °C. The gradient mobile phase consisted of 0.1% formic acid in water (mobile phase A) and 0.1% formic acid in acetonitrile (mobile phase B) at a total flow rate of 1 mL/min. The initial mobile phase composition was 10% B, which was held constant for 0.5 min, increased in a linear fashion to 90% B over 1 min, then held constant for 0.8 min, and finally brought back to the initial condition of 10% B over 0.01 min and reequilibrated for 1 min. The transitions (precursor ion > product ion) of berberrubine and IS (methyl testosterone) are 322.11 > 307.1 and 303.1 > 109.1 (positive), respectively.

[3] = donor/acceptor pH 6.4/7.4, 30 μM, read-out: Membrane permeability pH6.4/7.4
[4] = donor/acceptor pH 7.4/7.4, 30 μM, read-out: Membrane permeability pH7.4/7.4

| Papp at 4 h, 30 μM (PAMPA assay; donor/acceptor pH 8.6/8.6, 30 μM, read-out: Membrane permeability pH8.6/8.6) [×10⁻⁶ cm/s] | Compound | mitochondrial abundance (mtDNA 16S rRNA or ND1 / nuclear HK2) (C2C12 cells) | Papp at 4 h, 30 μM (PAMPA assay; donor/acceptor pH 4.5/4.5, 30 μM, read-out: Membrane permeability pH4.5/4.5) [×10⁻⁶ cm/s] | Papp at 4 h, 30 μM (PAMPA assay; [3]) [×10⁻⁶ cm/s] | Papp at 4 h, 30 μM (PAMPA assay; [4]) [×10⁻⁶ cm/s] | fraction unbound at 6 h, 1 μM [1] | AUC(0-inf) ([2]; single oral gavage 10 mg/kg) [ng·h/mL] | Cmax ([2]; single oral gavage 10 mg/kg) [ng/mL] | Tmax ([2]; single oral gavage 10 mg/kg) [min] | half-life ([2]; single oral gavage 10 mg/kg) [min] | CL/F ([2]; single oral gavage 10 mg/kg) [mL/min/kg] | AUC(0-inf) ([2]; single oral gavage 100 mg/kg) [ng·h/mL] | Cmax ([2]; single oral gavage 100 mg/kg) [ng/mL] | Tmax ([2]; single oral gavage 100 mg/kg) [min] | half-life ([2]; single oral gavage 100 mg/kg) [min] | CL/F ([2]; single oral gavage 100 mg/kg) [mL/min/kg] | time to reach maximum plasma concentration (Cmax) [2] [h] | Vdz/F ([2]; single oral gavage 10 mg/kg) [L/kg] | Vdz/F ([2]; single oral gavage 100 mg/kg) [L/kg] |
| --- | --- | --- | --- | --- | --- | --- | --- | --- | --- | --- | --- | --- | --- | --- | --- | --- | --- | --- | --- |
| – | COc1ccc2cc3[n+](cc2c1O)CCc1cc2c(cc1-3)OCO2 [AcA-BRB, berberrubine acetic acid adduct] | significantly increased | 0.22 | 1.87 | 1.8 | 0.203 | 95.7 | 101 | 15 | 101 | 1740 | 2130 | 3060 | 15 | 259 | 783 | ≤ 0.25 | 253 | 292 |
| 2.6 | COc1ccc2cc3n(cc-2c1=O)CCc1cc2c(cc1-3)OCO2 [Q-BRB, quinoid-type berberrubine] | significantly increased | – | 1.63 | 2.9 | 0.162 | 76.5 | 126 | 15 | 89.4 | 2180 | 5110 | 8340 | 15 | 299 | 326 | ≤ 0.25 | 281 | 141 |
